Results on 19 compounds are retold here after patent US12617814B2, “Neuroactive steroids and methods of use thereof” (Sage Therapeutics, LLC, priority 2013, dated 2026).

The target in assay [1] is T1, NMDA receptor (GRIN1/GRIN2A subunits) (Homo sapiens, UniProt Q05586+Q12879).
T1 construct: expressed in transfected cells
Description: NMDA potentiation, whole-cell patch clamp of HEK cells expressing NMDA receptor. It is filed as cell-based. The note with it: for activation at 0.1 µM: HEK293, 0.1 uM compound, read-out: NMDA 1a2A (%) Potentiation 0.1 uM; for activation at 0.1 µM / activation at 1 µM / NMDA 1a2A (%) Potentiation 0.1 uM / NMDA 1a2A (%) Potentiation 1 uM: HEK cells, 30 μM NMDA and 5.0 μM Glycine; for activation at 1 µM: HEK293, 1 uM compound, read-out: NMDA 1a2A (%) Potentiation 1 uM; for NMDA 1a2A (%) Potentiation 0.1 uM: 0.1 uM compound; for NMDA 1a2A (%) Potentiation 1 uM: 1 uM compound. On the procedure:
NMDA potentiation was assessed using either whole cell patch clamp of mammalian cells which expressed NMDA receptors, or using two-electrode voltage clamp (TEVC) of Xenopus Laevis oocytes expressing NMDA receptors.
NMDA/Glycine peak and steady-state currents were recorded from stably transfected cells expressing the NMDA receptor and the modulatory effects of the test items on these currents were investigated.
Cells were stably transfected with human GRIN1 (variant NR1-3). These cells were transiently transfected (Lipofectamine™) with GRIN2A cDNA and CD8 (pLeu) antigene cDNA. About 24-72 hours following transfection 1 μl Dynabeads M-45 CD8 was added to identify successfully transfected cells (Jurman et al., Biotechniques (1994) 17:876-881). Cells were passaged to a confluence of 50-80%. Cells were seeded onto Poly-L-Lysine coated cover slips covered with culture complete medium in a 35 mm culture dish. Confluent clusters of cells are electrically coupled (Pritchett et al., Science (1988), 242:1306-8). Because responses in distant cells are not adequately voltage clamped and because of uncertainties about the extent of coupling (Verdoorn et al., Neuron (1990), 4:919-28), cells were cultivated at a density that enables single cells (without visible connections to neighboring cells) to be measured. Cells were incubated at 37° C. in a humidified atmosphere with 5% CO2 (rel. humidity about 95%). The cells were continuously maintained in and passaged in sterile culture flasks containing a 1:1 mixture of Dulbecco's modified eagle medium and nutrient mixture F-12 (D-MEM/F-12 1×, liquid, with L-Glutamine) supplemented with 9% fetal bovine serum and 0.9% Penicillin/Streptomycin solution. The complete medium was supplemented with 3.0 μg/ml Puromycin.
Whole cell currents were measured with HEKA EPC-10 amplifiers using PatchMaster software. Cell culture dishes for recordings were placed on the dish holder of the microscope and continuously perfused (1 ml/min) with “bath solution” (NaCl 137 mM, KCl 4 mM, CaCl2 1.8 mM, MgCl2 1 mM, HEPES 10 mM, D-Glucose 10 mM, pH (NaOH) 7.4). All solutions applied to cells including the pipette solution were maintained at room temperature (19° C.-30° C.). After formation of a Gigaohm seal between the patch electrodes and transfected individual HEK 293 cells (pipette resistance range: 2.5 MΩ-6.0 MΩ; seal resistance range: >1 GQ) the cell membrane across the pipette tip was ruptured to assure electrical access to the cell interior (whole-cell patch-configuration). At this point the bath solution is switched to “NMDA bath solution” (NaCl 137 mM, KCl 4 mM, CaCl2 2.8 mM, HEPES 10 mM, D-Glucose 10 mM, Cremophore 0.02%, pH (NaOH) 7.4). NMDA inward currents were measured upon application of 30 μM NMDA (and 5.0 μM Glycine) to patch-clamped cells (2 applications) for 5 s. The cells were voltage clamped at a holding potential of −80 mV. For the analysis of test articles, NMDA receptors were stimulated by 30 μM NMDA and 5.0 μM Glycine after sequential pre-incubation of increasing concentrations of the test article. Pre-incubation duration was 30 s. Stimulation duration was 5 s Test articles were dissolved in DMSO to form stock solutions of 0.1 mM and 1 mM. Test articles were diluted to 0.1 μM and 1 μM in “NMDA bath solution”. Both concentrations of test articles were tested on each cell. The same concentration was applied at least three times or until the steady state current amplitude was reached. Every day one cell was tested with 50 μM PREGS (positive control) using the same application protocol to test whether cells were successfully transfected with NMDA receptors.

The next assay has as its target NMDA (NR1a/NR2A) (Homo sapiens, UniProt Q05586+Q12879). Particulars: cited from earlier work.

T1 sequence (Q12879 23-1464, other chains not shown): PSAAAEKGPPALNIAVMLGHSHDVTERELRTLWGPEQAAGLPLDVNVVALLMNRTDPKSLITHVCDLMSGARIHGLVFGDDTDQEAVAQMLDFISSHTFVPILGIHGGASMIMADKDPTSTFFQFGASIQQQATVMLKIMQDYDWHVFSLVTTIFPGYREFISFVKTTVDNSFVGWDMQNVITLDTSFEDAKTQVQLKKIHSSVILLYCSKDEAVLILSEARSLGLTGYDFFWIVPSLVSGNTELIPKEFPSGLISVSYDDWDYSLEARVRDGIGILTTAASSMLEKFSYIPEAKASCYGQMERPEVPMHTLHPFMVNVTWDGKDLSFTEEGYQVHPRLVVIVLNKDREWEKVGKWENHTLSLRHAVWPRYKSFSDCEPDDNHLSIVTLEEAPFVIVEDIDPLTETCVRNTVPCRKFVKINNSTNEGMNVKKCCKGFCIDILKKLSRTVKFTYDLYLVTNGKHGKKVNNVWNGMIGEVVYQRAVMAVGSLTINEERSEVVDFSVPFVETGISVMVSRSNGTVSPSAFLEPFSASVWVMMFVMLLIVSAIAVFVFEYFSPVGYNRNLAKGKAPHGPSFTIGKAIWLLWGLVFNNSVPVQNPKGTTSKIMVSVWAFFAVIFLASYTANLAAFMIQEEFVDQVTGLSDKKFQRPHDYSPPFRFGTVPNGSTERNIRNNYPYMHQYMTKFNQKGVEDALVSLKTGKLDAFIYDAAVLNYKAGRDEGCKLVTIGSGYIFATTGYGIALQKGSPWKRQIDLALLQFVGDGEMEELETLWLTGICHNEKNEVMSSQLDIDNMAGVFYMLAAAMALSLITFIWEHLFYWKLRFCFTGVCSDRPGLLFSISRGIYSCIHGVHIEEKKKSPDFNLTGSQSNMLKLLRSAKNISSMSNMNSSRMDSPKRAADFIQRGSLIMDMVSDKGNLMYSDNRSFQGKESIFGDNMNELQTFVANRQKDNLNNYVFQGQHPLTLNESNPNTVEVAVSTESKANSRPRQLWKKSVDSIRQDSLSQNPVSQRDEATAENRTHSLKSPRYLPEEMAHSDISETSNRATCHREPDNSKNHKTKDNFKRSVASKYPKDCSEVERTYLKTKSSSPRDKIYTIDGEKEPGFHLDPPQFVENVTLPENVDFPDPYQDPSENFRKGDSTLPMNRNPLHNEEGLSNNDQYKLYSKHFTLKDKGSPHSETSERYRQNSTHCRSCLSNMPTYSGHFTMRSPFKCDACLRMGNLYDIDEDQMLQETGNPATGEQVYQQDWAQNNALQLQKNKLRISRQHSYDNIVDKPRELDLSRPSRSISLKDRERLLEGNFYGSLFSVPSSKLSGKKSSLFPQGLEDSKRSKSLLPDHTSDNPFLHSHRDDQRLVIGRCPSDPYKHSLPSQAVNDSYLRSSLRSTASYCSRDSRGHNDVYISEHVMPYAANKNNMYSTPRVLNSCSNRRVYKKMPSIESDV
Sequence of NMDA (NR1a/NR2A) (Q12879 23-1464, other chains not shown): as above

As to `C[C@H](CCC(C)(C)O)[C@H]1CC[C@H]2[C@@H]3CC=C4C[C@@H](O)CC[C@]4(C)[C@H]3CC[C@]12C` (stereo in doubt) [Org-1, reference compound], in assay [1], the activation at 0.1 µM fell in the range of 10 to 75% and the activation at 1 µM lay in the range of 150 to 250%. On NMDA (NR1a/NR2A), the “modulation of NMDA (NR1a/NR2A)” value was “positive modulator” and the “selectivity NMDA over GABAA” value is “selectively modulate NMDA over GABAA”.
With `CC(O)CCC(C)[C@H]1CC[C@H]2[C@@H]3CC=C4C[C@@H](O)CC[C@]4(C)[C@H]3CC[C@]12C` (some centres unmarked) [Comparison compound 1, reference compound], in assay [1], the activation at 0.1 µM lay within 10 to 75% and the activation at 1 µM lay in the range of 75 to 150%.
For `CC(CCC(C)(C)O)[C@H]1CC[C@H]2[C@@H]3CC=C4C[C@@](C)(O)CC[C@]4(C)[C@H]3CC[C@]12C` (some centres unmarked) [Comparison compound 2, reference compound], in that order: 75 to 150% and more than 250%.
Take `CC(CCC(C)(C)O)[C@H]1CC[C@H]2[C@@H]3CC[C@H]4C[C@@](C)(O)CC[C@]4(C)[C@H]3CC[C@]12C` (some centres unmarked) [Comparison compound 3, reference compound]: in assay [1], the activation at 0.1 µM was 75 to 150% and the activation at 1 µM was 150 to 250%.
Take `CC(C)(O)CCC[C@H]1CC[C@H]2[C@@H]3CC[C@H]4C[C@@](C)(O)CC[C@]4(C)[C@H]3CC[C@]12C` [Comparison compound 4, reference compound]: in assay [1], the activation at 0.1 µM lay in the range of 10 to 75% and the activation at 1 µM was 75 to 150%. Also, the “loss of NMDA potentiation compared to Comparison Compound 3” value in assay [1] (measured at 0.1 μM concentration) was “five fold”.
For `CCC(C)(O)CC[C@@H](C)[C@H]1CC[C@H]2[C@@H]3CC[C@H]4C[C@@](C)(O)CC[C@]4(C)[C@H]3CC[C@]12C` (some centres unmarked) [Comparison compound 5, reference compound], in assay [1], the “NMDA 1a2A (%) Potentiation 0.1 uM” value is reported as “A (“A” indicates 10-75% potentiation)” and the “NMDA 1a2A (%) Potentiation 1 uM” value is on record as “A (“A” indicates 10-75% potentiation)”.
With `C[C@H](CCC(O)C(F)(F)F)[C@H]1CC[C@H]2[C@@H]3CC=C4C[C@@](C)(O)CC[C@]4(C)[C@H]3CC[C@]12C` (some centres unmarked) [Compound 1-11], in assay [1], the activation at 0.1 µM lay in the range of 150 to 250% and the activation at 1 µM fell in the range of 150 to 250%.
Turning to `C[C@H](CCC(O)C(F)(F)F)[C@H]1CC[C@H]2[C@@H]3CC[C@H]4C[C@@](C)(O)CC[C@]4(C)[C@H]3CC[C@]12C` (some centres unmarked) [Compound 1-12], in assay [1], the activation at 0.1 µM is 10 to 75% and the activation at 1 µM lay in the range of 75 to 150%.
For the compound `C[C@H](CC[C@H](O)C(F)(F)F)[C@H]1CC[C@H]2[C@@H]3CC=C4C[C@@](C)(O)CC[C@]4(C)[C@H]3CC[C@]12C` [Compound 1-15], in assay [1], the activation at 0.1 µM lay in the range of 75 to 150% and the activation at 1 µM lay within 150 to 250%.
In the case of `C[C@H](CC[C@@H](O)C(F)(F)F)[C@H]1CC[C@H]2[C@@H]3CC=C4C[C@@](C)(O)CC[C@]4(C)[C@H]3CC[C@]12C` [Compound 1-17], in assay [1], the activation at 0.1 µM lay in the range of 150 to 250% and the activation at 1 µM was 150 to 250%.
In the case of `CCC(C)(O)CC[C@@H](C)[C@H]1CC[C@H]2[C@@H]3CC=C4C[C@@](C)(O)CC[C@]4(C)[C@H]3CC[C@]12C` (some centres unmarked) [Compound 4-6], in assay [1], the activation at 0.1 µM is 150 to 250% and the activation at 1 µM is 150 to 250%.
Take `CCC(C)(O)CC[C@@H](C)[C@H]1CC[C@H]2[C@@H]3CC[C@H]4C[C@@](C)(O)CC[C@]4(C)[C@H]3CC[C@]12C` (some centres unmarked) [Compound 4-7]: in assay [1], the “NMDA 1a2A (%) Potentiation 0.1 uM” value is on record as “B (“B” indicates potentiation of >75% to 150%)” and the “NMDA 1a2A (%) Potentiation 1 uM” value is “C (“C” indicates potentiation of >150 to 250%)”.
Turning to `CCCC(C)(O)CC[C@@H](C)[C@H]1CC[C@H]2[C@@H]3CC=C4C[C@@](C)(O)CC[C@]4(C)[C@H]3CC[C@]12C` (some centres unmarked) [Compound 5-2], in assay [1], the activation at 0.1 µM was 75 to 150% and the activation at 1 µM lay within 150 to 250%.
The matching figures for `CCCC(C)(O)CC[C@@H](C)[C@H]1CC[C@H]2[C@@H]3CC[C@H]4C[C@@](C)(O)CC[C@]4(C)[C@H]3CC[C@]12C` (some centres unmarked) [Compound 5-3]: 10 to 75% and 75 to 150%.
Regarding `C=CCC(C)(O)CC[C@@H](C)[C@H]1CC[C@H]2[C@@H]3CC=C4C[C@@](C)(O)CC[C@]4(C)[C@H]3CC[C@]12C` (some centres unmarked) [Compound 6-2], in assay [1], the activation at 0.1 µM is 75 to 150% and the activation at 1 µM lay within 150 to 250%.
For `CCCCC(C)(O)CC[C@@H](C)[C@H]1CC[C@H]2[C@@H]3CC=C4C[C@@](C)(O)CC[C@]4(C)[C@H]3CC[C@]12C` (some centres unmarked) [Compound 7-2], in assay [1], the activation at 0.1 µM lay within 10 to 75% and the activation at 1 µM lay in the range of 75 to 150%.
As for `CC(C)C(C)(O)CC[C@@H](C)[C@H]1CC[C@H]2[C@@H]3CC=C4C[C@@](C)(O)CC[C@]4(C)[C@H]3CC[C@]12C` (some centres unmarked) [Compound 8-2], in assay [1], the activation at 0.1 µM was in the range of 75 to 150% and the activation at 1 µM is 150 to 250%.
With `CC(C)C(C)(O)CC[C@@H](C)[C@H]1CC[C@H]2[C@@H]3CC[C@H]4C[C@@](C)(O)CC[C@]4(C)[C@H]3CC[C@]12C` (some centres unmarked) [Compound 8-3], in assay [1], the activation at 0.1 µM lay within 75 to 150% and the activation at 1 µM is more than 250%.
In the case of `C[C@H](CCC(C)(O)C1CC1)[C@H]1CC[C@H]2[C@@H]3CC=C4C[C@@](C)(O)CC[C@]4(C)[C@H]3CC[C@]12C` (some centres unmarked) [Compound 9-2], in assay [1], the activation at 0.1 µM fell in the range of 150 to 250% and the activation at 1 µM was 150 to 250%.
